Values joined by “and” are separate entries in the source; they are usually repeats but may differ in a detail not shown here. Equal entries are not always repeated. Structures can show the parent of a compound that is named as a salt. Where two headings read alike, the source gives them in different places.
Key:
[1] = molecular target: T1, SGLT1 (Homo sapiens, UniProt P13866); assay: SGLT1 inhibition assay for validation of screening hits and similar compounds (1‐NBD‐glucose uptake, CHO‐hSGLT1 cells); type: cell-based; design: activity: dose or concentration left out as unconfirmed; details: for activity: compound, normalized 1-NBD-glucose uptake, CHO-hSGLT1 cells; for remaining activity at 5 µM / remaining activity at 50 µM: 0.5 h, read-out: NORMALIZED SGLT1 ACTIVITY (%)
T1 sequence (P13866 1-664): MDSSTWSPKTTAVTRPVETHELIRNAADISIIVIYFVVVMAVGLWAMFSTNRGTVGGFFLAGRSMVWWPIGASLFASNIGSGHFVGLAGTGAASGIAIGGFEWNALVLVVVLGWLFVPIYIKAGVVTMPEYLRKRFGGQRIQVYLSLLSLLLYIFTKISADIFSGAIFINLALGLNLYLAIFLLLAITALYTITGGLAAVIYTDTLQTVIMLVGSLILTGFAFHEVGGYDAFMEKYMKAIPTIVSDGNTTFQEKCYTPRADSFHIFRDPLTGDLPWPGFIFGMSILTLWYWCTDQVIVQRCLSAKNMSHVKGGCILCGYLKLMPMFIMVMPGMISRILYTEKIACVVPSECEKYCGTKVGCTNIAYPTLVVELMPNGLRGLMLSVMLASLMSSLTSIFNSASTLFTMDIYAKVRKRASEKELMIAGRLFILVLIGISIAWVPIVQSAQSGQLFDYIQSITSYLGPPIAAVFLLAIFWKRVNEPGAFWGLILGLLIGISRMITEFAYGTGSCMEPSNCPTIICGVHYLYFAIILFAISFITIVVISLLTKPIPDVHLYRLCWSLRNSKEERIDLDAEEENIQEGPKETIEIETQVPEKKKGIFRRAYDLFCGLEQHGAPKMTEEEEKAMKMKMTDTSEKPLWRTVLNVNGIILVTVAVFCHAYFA

[2] = molecular target: T2, hSGLT2 (Homo sapiens, UniProt P31639); assay: SGLT2 inhibition assay for validation of screening hits and similar compounds (1‐NBD‐glucose uptake, CHO‐hSGLT2 cells); type: cell-based; design: activity: dose or concentration left out as unconfirmed; details: for activity: compound, normalized 1-NBD-glucose uptake, CHO-hSGLT2 cells; for SGLT2/SGLT1 ACTIVITY RATIO 5 uM Mean: ratio of normalized SGLT2 to SGLT1 activity at 5 uM; for remaining activity at 5 µM / remaining activity at 50 µM: 0.5 h, read-out: NORMALIZED SGLT2 ACTIVITY (%)
T2 sequence (P31639 1-672): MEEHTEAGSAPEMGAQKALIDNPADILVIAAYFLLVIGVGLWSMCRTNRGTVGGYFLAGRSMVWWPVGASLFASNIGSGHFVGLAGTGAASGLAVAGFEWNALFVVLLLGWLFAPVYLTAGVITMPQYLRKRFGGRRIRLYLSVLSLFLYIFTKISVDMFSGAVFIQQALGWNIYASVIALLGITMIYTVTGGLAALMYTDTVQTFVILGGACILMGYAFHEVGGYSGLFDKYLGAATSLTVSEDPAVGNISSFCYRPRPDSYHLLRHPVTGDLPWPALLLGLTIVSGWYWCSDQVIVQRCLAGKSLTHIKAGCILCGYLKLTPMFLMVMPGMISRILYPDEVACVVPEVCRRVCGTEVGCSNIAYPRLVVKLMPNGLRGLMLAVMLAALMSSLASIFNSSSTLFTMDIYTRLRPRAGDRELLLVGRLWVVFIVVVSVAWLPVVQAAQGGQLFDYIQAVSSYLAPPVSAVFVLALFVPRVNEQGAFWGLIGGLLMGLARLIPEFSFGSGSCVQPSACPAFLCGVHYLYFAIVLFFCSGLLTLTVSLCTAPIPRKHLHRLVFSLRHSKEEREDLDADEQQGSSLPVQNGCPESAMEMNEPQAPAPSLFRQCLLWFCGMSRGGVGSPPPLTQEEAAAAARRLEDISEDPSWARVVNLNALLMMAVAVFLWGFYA

[3] = system: CHO‐hSGLT1/2 cells; assay: Cytotoxicity assay (ToxiLight, adenylate kinase leakage into CHO‐SGLT1/2 inhibition assay media); design: CYTOTOXICITY / CY[…], mean / CYTOTOXICITY (% of vehicle control) Mean / CYTOTOXICITY, mean / CY[…] (% of vehicle control) Mean: dose or concentration left out as unconfirmed; details: mean; for CY[…] 50 mM: at 50 mM (so in the source);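 on all read-outs here: bioluminescent read-out of adenylate kinase released from lysed cells into the medium, given relative to DMSO vehicle control defined as 0%, higher meaning more cytolysis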
Procedure: The cytotoxicity of representative SGLT1/2 inhibitors and compounds from the different chemical clusters was tested. Cytotoxicity was determined using the ToxiLight bioassay kit according to the supplier's instructions. This nondestructive assay measures leakage of the enzyme adenylate kinase (AK) from damaged cells into the CHO‐SGLT1/2 inhibition assay media, ie the degree of cytolysis. […] Next, bioluminescence was measured using a FlexStation 3 Multi‐Mode Microplate Reader (Molecular Devices) by 1 second integrated reading. Cytotoxicity was expressed as the percentage of bioluminescence of the DMSO vehicle control which was set at 0%. If applicable, statistical outliers were determined using Grubbs’ test (alpha = 0.05) and excluded for calculation of the mean ± SD.

[4] = mean inhibition with 50 μmol/L inhibitor

Compound	activity ([1]; mean) [%]	activity ([2]; mean) [%]	SGLT2/SGLT1 ACTIVITY RATIO 5 uM Mean [2]	remaining activity at 5 µM ([1]; mean, concentration not given) [%]	remaining activity at 50 µM ([1]; mean, concentration not given) [%]	remaining activity at 5 µM ([2]; mean, concentration not given) [%]	remaining activity at 50 µM ([2]; mean, concentration not given) [%]	CYTOTOXICITY (% of vehicle control) Mean [3]	CYTOTOXICITY [3]	also measured
CCN(CC)CCOC(=O)C(c1ccccc1)c1ccccc1 [Adiphenine HCl]	108	113	1.0	–	–	–	–	–	–	CY[…] (% of vehicle control) Mean [3]: -16 % of vehicle control
CCCN1CCCC[C@H]1C(=O)Nc1c(C)cccc1C [Ropivacaine HCl monohydrate]	–	–	–	97	70	86	67	–	–	CY[…] 50 mM [3]: 0.836
CCC(C)C(=O)O[C@H]1[C@H](OC(C)=O)c2c(ccc3ccc(=O)oc23)OC1(C)C (stereo partly shown) [peucedanocoumarin I]	95	102	1.1	–	–	–	–	4.22 % of vehicle control	–	SGLT2/SGLT1‐50μmol/L (ratio of SGLT2 to SGLT1 activities with 50 μmol/L inhibitor) [1]: 2
Oc1cc(O)cc(/C=C/c2ccc(O)c(O)c2)c1 [Piceatannol]	–	–	–	107	101	101	105	–	-87	–
Oc1c(Br)cc(Cl)c2cccnc12 [7-Bromo-5-chloro-8-hydroxyquinoline]	–	–	–	103	45	92	78	–	14	–
CC1(C)Oc2ccc3ccc(=O)oc3c2CC1O (stereo not shown) [Lomatin]	–	–	1.0	–	–	–	–	-26 % of vehicle control	–	SGLT1 inhibition [1, 4]: no SGLT inhibition; SGLT2 inhibition [2, 4]: no SGLT inhibition
C[C@@H]1O[C@@H](O[C@H]2[C@H](O[C@H]3CC[C@]4(C)[C@H]5CC=C6[C@@H]7CC(C)(C)CC[C@]7(C(=O)O)CC[C@@]6(CO)[C@]5(C)CC[C@H]4C3(C)C)OC[C@H](O[C@@H]3O[C@H](CO)[C@@H](O)[C@H](O)[C@H]3O)[C@@H]2O)[C@H](O)[C@H](O)[C@H]1O [Raddeanoside 20]	–	–	–	103	99	116	116	–	-24	–
COC(=O)C(c1ccccc1Cl)N1CCc2sccc2C1 (stereo not shown) [Clopidogrelum, clopidogrel]	–	–	–	–	–	–	–	–	–	remaining activity at 5 µM [1]: 96%; remaining activity at 50 µM [1]: 54%; SGLT2/SGLT1 ACTIVITY RATIO [2]: 1.1 and 1.0; remaining activity at 5 µM [2]: 95%; remaining activity at 50 µM [2]: 60%; CY[…] 50 mM [3]: -9
COC(=O)[C@@]1(C)CC[C@]2(C(=O)O[C@@H]3O[C@H](CO)[C@@H](O)[C@H](O)[C@H]3O)CC[C@]3(C)C(=CC[C@@H]4[C@@]5(C)C[C@H](O)[C@H](O[C@@H]6OC[C@@H](O[C@@H]7O[C@H](CO)[C@@H](O)[C@H](O)[C@H]7O)[C@H](O)[C@H]6O)[C@@](C)(CO)[C@@H]5CC[C@]43C)[C@@H]2C1 [Esculentoside H]	–	–	–	104	102	120	112	–	-13	–
Cc1cccc(C)c1NC(=O)C1CCCCN1C (racemic) [(±)-Mepivacaine HCl]	–	–	–	98	89	89	82	–	3	–
CC(=O)OC1c2c(ccc3ccc(=O)oc23)OC(C)(C)C1OC(=O)C=C(C)C (stereo not shown) [Samidin]	85	94	1.1	–	–	–	–	-10 % of vehicle control	–	–
CN1CCC(OC(c2ccccc2)c2ccccc2)CC1 [Diphenylpyraline HCl]	108	104	1.0	–	–	–	–	–	–	CY[…] (% of vehicle control) Mean [3]: -6 % of vehicle control
OC(CCN1CCCCC1)(c1ccccc1)C1CC2C=CC1C2 (stereo not shown) [Biperiden HCl]	79	75	0.949	–	–	–	–	–	–	CY[…] (% of vehicle control) Mean [3]: -7 % of vehicle control
C/C=C(\C)C(=O)O[C@H]1[C@@H](OC(C)=O)c2c(ccc3ccc(=O)oc23)OC1(C)C [(+)-Praeruptorin A]	94	95	1.0	–	–	–	–	-5.48 % of vehicle control	–	–
Cc1nc2sccn2c(=O)c1CCN1CCC(=C(c2ccc(F)cc2)c2ccc(F)cc2)CC1 [ritanserin, reference compound]	–	–	–	76	44	64	15	–	-5.28	SGLT2/SGLT1‐50μmol/L (ratio of SGLT2 to SGLT1 activities with 50 μmol/L inhibitor) [1]: 0.3
Oc1cc(O)cc(/C=C/c2ccccc2)c1 [Pinosylvin]	–	–	–	98	155	97	117	–	-71	–
O=c1c(-c2ccc(O)cc2)coc2cc(O[C@@H]3O[C@H](CO)[C@@H](O)[C@H](O)[C@H]3O)ccc12 [Daidzin]	97	102	1.0	–	–	–	–	-19 % of vehicle control	–	–
COc1cc(/C=C/c2ccc(O)cc2)cc(OC)c1 [Pterostilbene]	–	–	–	100	119	102	123	–	-42	–
COc1ccc(-c2coc3cc(O[C@@H]4O[C@H](CO)[C@@H](O)[C@H](O)[C@H]4O)cc(O)c3c2=O)cc1 [Sissotrin]	99	106	1.1	–	–	–	–	-23 % of vehicle control	–	–
Oc1ccc(/C=C/c2cc(O)cc3c2[C@H](c2cc(O)cc(O)c2)[C@@H](c2ccc(O)cc2)O3)cc1 [(+)-e-Viniferin]	–	–	–	97	56	102	79	–	6	–
